Reference: US20180298340A1, “SYSTEMS FOR DETECTING, MONITORING OR TREATING DISEASES OR CONDITIONS USING ENGINEERED CELLS AND METHODS FOR MAKING AND USING THEM” (The Regents of the University of California, priority 2015, published 2018)

Assays:
YAP/TAZ [1] = test: MRCS-eGFP on firm substrate treated with mechano-sensing inhibitors (immunofluorescence); assay type: cell-based, human; conditions: firm (~40 kPa) poly-acrylamide; blebbistatin (5004 [sic]), 10 μM ML-7, 20 μM PF228
Method: FIG. 16A-L illustrate images of exemplary MRCS-eGFP showing that MRCS is stiffness specific in vitro. MRCS was plated on firm (approximately 40 kPa) poly-acrylamide and treated with (FIG. 16A, FIG. 16D, FIG. 16G, FIG. 16J) […] blebbistatin and (FIG. 16B, E, FIG. 16H, FIG. 16K) 10 μM ML-7 (myosin light-chain kinase inhibitors) as well as (FIG. 16C, FIG. 16F, FIG. 16I, FIG. 16K) 20 μM PF228 (focal adhesion kinase inhibitor). […] Scale bar=50 μm.
MRCS-eGFP sensing was also shown to be reversibly stiffness-dependent (FIG. 16). Cells plated on stiff, activating substrate (approximately 40 kPa) were deactivated with the addition of blebbistatin and ML-7 (myosin light-chain kinase inhibitors) or PF228 (a focal adhesion kinase inhibitor). This was seen from the lack of GFP fluorescence (FIG. 16A-C) and from the localization of YAP/TAZ to the cytoplasm (FIG. 16D-F). Real-time RT-PCR was performed on the seeded MRCS-eGFP cells to quantify relative mRNA expression levels of eGFP and two downstream factors of YAP/TAZ, CTGF (Connective Tissue Growth Factor) and ANKRDI (ANKyrin Repeat Domain-containing protein 1) (FIG. 17). […] N-MSC plated on stiff substrate was a control.

YAP/TAZ [2] = test: MRCS-Luc luciferase activity on substrates with different stiffness; assay type: cell-based, human; conditions: compared to uninhibited cells on stiff, activating substrates
Method: FIG. 18 graphically illustrates data showing that MRCS-luciferase (MRCS-Luc) is stiffness specific in vitro. MRCS-Luc was seeded on substrates with different stiffness. […] D-Luciferin: 150 μg/ml in MSC growth medium. *P<0.05, **P<0.01.
The MRCS with engineered reporter-Luc construct (MRCS-Luc) was also found to be stiffness specific in vitro, similar to MRCS-eGFP (FIG. 18). […] C-MSC constitutively expressing luciferase served as a positive control, and N-MSC with no luciferase activity served as a negative control.

YAP/TAZ [3] = test: MRCS-CD on firm substrate treated with mechano-sensing inhibitors; assay type: cell-based, human; conditions: firm (~40 kPa) poly-acrylamide; 50 μM blebbistatin, 10 μM ML-7, 20 μM PF228
Method: FIG. 20 graphically illustrates data showing that MRCS-CD is stiffness specific in vitro based on stiffness inhibitor studies. MRCS was plated on firm (approximately 40 kPa) poly-acrylamide and treated with (A,D,G,J) 50 μM blebbistatin and (B,E,H,K) 10 μM ML-7 (myosin light-chain kinase inhibitors) as well as (C,F,I,K) 20 μM PF228 (focal adhesion kinase inhibitor). […] Scale bar=50 μm.
MRCS-CD sensing was also shown to be reversibly stiffness-dependent (FIG. 20). Cells plated on stiff, activating substrate (approximately 40 kPa) were deactivated with the addition of blebbistatin and ML-7 (myosin light-chain kinase inhibitors) or PF228 (a focal adhesion kinase inhibitor). This was seen from the lack of GFP fluorescence (FIG. 20A-C) and from the localization of YAP/TAZ to the cytoplasm (FIG. 20D-F).

[4] = cited from earlier work

Compound | YAP/TAZ localization in MRCS with inhibitor (YAP/TAZ [1]) | eGFP of MRCS with inhibitor (YAP/TAZ [1]) | luciferase expression levels of MRCS-Luc with inhibitor (YAP/TAZ [2]) | YAP/TAZ localization in MRCS-CD with inhibitor (YAP/TAZ [3]) | cytosine deaminase (CD) of MRCS with inhibitor (YAP/TAZ [3]) | plasma half-life [4]
O=S(=O)(c1cccc2c(I)cccc12)N1CCCNCC1 [ML-7] | in cytoplasm | turned off | significantly lowered | in cytoplasm | turned off | –
CS(=O)(=O)c1cccc(CNc2nc(Nc3ccc4c(c3)CCC(=O)N4)ncc2C(F)(F)F)c1 [PF228] | in cytoplasm | turned off | significantly lowered | in cytoplasm | turned off | –
Cc1ccc2c(c1)C(=O)C1(O)CCN(c3ccccc3)C1=N2 (stereo not shown) [blebbistatin] | in cytoplasm | turned off | significantly lowered | in cytoplasm | turned off | –
E. coli beta-gal: E. coli beta-galactosidase reporter enzyme | – | – | – | – | – | less than 60 min
